ChEMBL document CHEMBL3351682, “NaSH in the construction of thiophene ring fused with N-heterocycles: a rapid and inexpensive synthesis of novel small molecules as potential inducers of apoptosis” (Bioorg Med Chem Lett, 2014)
pEC50: −log10 of the molar value. The source made the active and inactive calls. The rule behind the calls is not given here.

How the values were obtained:
Danio rerio [1] = species: Danio rerio; experiment: Teratogenicity in zebrafish embryo at 1 to 30 uM incubated until 5 days post fertilization; assay type: ADME, organism-based; settings: in vivo, 120 h
Danio rerio [2] = species: Danio rerio; experiment: Teratogenicity in zebrafish embryo incubated until 5 days post fertilization; assay type: ADME, organism-based; settings: in vivo, 120 h
Danio rerio [3] = species: Danio rerio; experiment: Induction of apoptosis in zebrafish embryo after 24 to 48 hrs by acridine orange staining based fluorescence microscopy; assay type: functional, organism-based
Danio rerio [4] = species: Danio rerio; experiment: Hepatotoxicity in zebrafish embryo incubated until 7 days post fertilization; assay type: organism-based; settings: in vivo, 168 h
Danio rerio [5] = species: Danio rerio; experiment: Induction of apoptosis in zebrafish embryo at 30 uM after 24 to 48 hrs by acridine orange staining based fluorescence microscopy; assay type: functional, organism-based
Danio rerio [6] = species: Danio rerio; experiment: Induction of apoptosis in zebrafish embryo at 1 to 30 uM after 24 to 48 hrs by acridine orange staining based fluorescence microscopy; assay type: functional, organism-based
[7] = Therapeutic index, ratio of NOAEL to apoptotic EC50 in Zebrafish embryo; assay type: organism-based, Danio rerio; settings: in vivo, read-out: TI
Danio rerio [8] = species: Danio rerio; experiment: Hepatotoxicity in zebrafish embryo at 1 to 30 uM incubated until 7 days post fertilization; assay type: organism-based; settings: in vivo, 168 h
Danio rerio [9] = species: Danio rerio; experiment: Hepatotoxicity in zebrafish embryo assessed as induction of mortality at 30 uM incubated until 7 days post fertilization; assay type: organism-based; settings: in vivo, 168 h
Danio rerio [10] = species: Danio rerio; experiment: Hepatotoxicity in zebrafish embryo at 10 uM incubated until 7 days post fertilization; assay type: organism-based; settings: in vivo, 168 h
Danio rerio [11] = species: Danio rerio; experiment: Teratogenicity in zebrafish embryo at 30 uM incubated until 5 days post fertilization; assay type: ADME, organism-based; settings: in vivo, 120 h
Danio rerio [12] = species: Danio rerio; experiment: Teratogenicity in zebrafish embryo at 10 uM incubated until 5 days post fertilization; assay type: ADME, organism-based; settings: in vivo, 120 h
Danio rerio [13] = species: Danio rerio; experiment: Induction of apoptosis in zebrafish embryo at 1 to 3 uM after 24 to 48 hrs by acridine orange staining based fluorescence microscopy; assay type: functional, organism-based

Row | Structure (SMILES) | Activity (Danio rerio [1]) | NOAEL (Danio rerio [2]) [µM] | pEC50 (Danio rerio [3]) | NOAEL (Danio rerio [4]) [µM] | Activity (Danio rerio [5]) | Activity (Danio rerio [6]) | selectivity ratio [7] | Activity (Danio rerio [8]) | Activity (Danio rerio [9]) | Activity (Danio rerio [10]) | Activity (Danio rerio [11]) | Activity (Danio rerio [12]) | Activity (Danio rerio [13])
1 | CCCc1cc2nc3ccccc3nc2s1 | Non-toxic | 30 | 5.35 | 30 | Active | Dose-dependent effect | 6.72 | Non-toxic |  |  |  |  | 
2 | CC(C)(C)c1cc2nc3ccccc3nc2s1 |  | 3 | 5.31 | 1 | Active | Dose-dependent effect | 0.2 |  | Toxic | Toxic | Toxic | Non-toxic | 
3 | Fc1cc(F)cc(-c2cc3nc4ccccc4nc3s2)c1 | Non-toxic | 30 | 4.99 | 30 | Active |  | 2.9 | Non-toxic |  |  |  |  | 
4 | Fc1cc(F)cc(-c2cc3nccnc3s2)c1 | Non-toxic | 30 | 5.01 | 30 | Active |  | 3.05 | Non-toxic |  |  |  |  | 
5 | c1ccc(-c2cc3nc4ccccc4nc3s2)cc1 |  | 10 | 5.07 | 10 | Active |  | 1.17 | Non-toxic |  |  | Toxic |  | Active
